Measurements published in article PMC6478789, “A chemical toolbox for the study of bromodomains and epigenetic signaling” (Nature Communications, 2019).

Assays:
Experiment in all cases: Histone acetyltransferase (HAT) activity assay
Assay type in all cases: biochemical
Conditions in all cases: for activity at 1 µM / activity at 10 µM: read-out: HATs Activity (%)
[1] = biological target: GCN5L2 (Homo sapiens, UniProt Q92830);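 note: selectivity screen of BRD probe compounds across a panel of histone acetyltransferases, HAT activity in % with compound at 1 or 10 µM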
[2] = biological target: T1, HAT1 (Homo sapiens, UniProt O14929);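 note: HAT selectivity screen of BRD probe compounds, enzyme activity in % measured with compound at 1 µM and 10 µM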
T1 sequence (O14929 1-419): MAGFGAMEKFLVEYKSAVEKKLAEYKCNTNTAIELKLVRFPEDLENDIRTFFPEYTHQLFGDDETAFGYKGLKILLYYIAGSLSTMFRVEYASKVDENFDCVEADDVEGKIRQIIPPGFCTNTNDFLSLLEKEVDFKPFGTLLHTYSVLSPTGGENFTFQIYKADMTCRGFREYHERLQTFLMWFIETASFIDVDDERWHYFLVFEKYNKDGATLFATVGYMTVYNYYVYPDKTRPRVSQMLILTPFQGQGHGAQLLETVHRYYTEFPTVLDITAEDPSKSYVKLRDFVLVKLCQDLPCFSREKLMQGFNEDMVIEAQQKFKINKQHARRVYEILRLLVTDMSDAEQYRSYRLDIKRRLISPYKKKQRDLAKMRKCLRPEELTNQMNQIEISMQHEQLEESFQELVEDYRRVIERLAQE

[3] = biological target: T2, MYST1 (Homo sapiens, UniProt Q9H7Z6);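 note: selectivity screen across a panel of histone acetyltransferases, with compounds tested at 1 and 10 µM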
T2 sequence (Q9H7Z6 1-458): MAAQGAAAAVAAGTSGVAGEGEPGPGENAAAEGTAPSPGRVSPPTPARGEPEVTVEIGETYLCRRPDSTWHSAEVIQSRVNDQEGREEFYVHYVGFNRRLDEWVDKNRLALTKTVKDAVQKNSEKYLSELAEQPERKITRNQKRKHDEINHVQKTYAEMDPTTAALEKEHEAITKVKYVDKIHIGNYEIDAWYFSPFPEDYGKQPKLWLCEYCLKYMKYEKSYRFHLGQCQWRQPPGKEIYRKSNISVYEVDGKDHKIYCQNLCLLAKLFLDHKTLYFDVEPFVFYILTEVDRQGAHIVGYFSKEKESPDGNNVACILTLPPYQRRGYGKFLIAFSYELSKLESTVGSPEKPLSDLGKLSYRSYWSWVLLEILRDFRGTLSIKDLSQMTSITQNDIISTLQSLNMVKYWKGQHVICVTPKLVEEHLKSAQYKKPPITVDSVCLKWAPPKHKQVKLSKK

[4] = biological target: MYST3 (Homo sapiens, UniProt Q92794);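 note: selectivity screen of bromodomain probe compounds across a panel of histone acetyltransferases, read out as enzyme activity in %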
[5] = biological target: EP300 (Homo sapiens, UniProt Q09472);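 note: selectivity screen of bromodomain probe compounds against histone acetyltransferases, with enzyme activity given in percent for compounds tested at 1 and 10 µM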
Sequence of EP300 (Q09472 whole entry, species assumed): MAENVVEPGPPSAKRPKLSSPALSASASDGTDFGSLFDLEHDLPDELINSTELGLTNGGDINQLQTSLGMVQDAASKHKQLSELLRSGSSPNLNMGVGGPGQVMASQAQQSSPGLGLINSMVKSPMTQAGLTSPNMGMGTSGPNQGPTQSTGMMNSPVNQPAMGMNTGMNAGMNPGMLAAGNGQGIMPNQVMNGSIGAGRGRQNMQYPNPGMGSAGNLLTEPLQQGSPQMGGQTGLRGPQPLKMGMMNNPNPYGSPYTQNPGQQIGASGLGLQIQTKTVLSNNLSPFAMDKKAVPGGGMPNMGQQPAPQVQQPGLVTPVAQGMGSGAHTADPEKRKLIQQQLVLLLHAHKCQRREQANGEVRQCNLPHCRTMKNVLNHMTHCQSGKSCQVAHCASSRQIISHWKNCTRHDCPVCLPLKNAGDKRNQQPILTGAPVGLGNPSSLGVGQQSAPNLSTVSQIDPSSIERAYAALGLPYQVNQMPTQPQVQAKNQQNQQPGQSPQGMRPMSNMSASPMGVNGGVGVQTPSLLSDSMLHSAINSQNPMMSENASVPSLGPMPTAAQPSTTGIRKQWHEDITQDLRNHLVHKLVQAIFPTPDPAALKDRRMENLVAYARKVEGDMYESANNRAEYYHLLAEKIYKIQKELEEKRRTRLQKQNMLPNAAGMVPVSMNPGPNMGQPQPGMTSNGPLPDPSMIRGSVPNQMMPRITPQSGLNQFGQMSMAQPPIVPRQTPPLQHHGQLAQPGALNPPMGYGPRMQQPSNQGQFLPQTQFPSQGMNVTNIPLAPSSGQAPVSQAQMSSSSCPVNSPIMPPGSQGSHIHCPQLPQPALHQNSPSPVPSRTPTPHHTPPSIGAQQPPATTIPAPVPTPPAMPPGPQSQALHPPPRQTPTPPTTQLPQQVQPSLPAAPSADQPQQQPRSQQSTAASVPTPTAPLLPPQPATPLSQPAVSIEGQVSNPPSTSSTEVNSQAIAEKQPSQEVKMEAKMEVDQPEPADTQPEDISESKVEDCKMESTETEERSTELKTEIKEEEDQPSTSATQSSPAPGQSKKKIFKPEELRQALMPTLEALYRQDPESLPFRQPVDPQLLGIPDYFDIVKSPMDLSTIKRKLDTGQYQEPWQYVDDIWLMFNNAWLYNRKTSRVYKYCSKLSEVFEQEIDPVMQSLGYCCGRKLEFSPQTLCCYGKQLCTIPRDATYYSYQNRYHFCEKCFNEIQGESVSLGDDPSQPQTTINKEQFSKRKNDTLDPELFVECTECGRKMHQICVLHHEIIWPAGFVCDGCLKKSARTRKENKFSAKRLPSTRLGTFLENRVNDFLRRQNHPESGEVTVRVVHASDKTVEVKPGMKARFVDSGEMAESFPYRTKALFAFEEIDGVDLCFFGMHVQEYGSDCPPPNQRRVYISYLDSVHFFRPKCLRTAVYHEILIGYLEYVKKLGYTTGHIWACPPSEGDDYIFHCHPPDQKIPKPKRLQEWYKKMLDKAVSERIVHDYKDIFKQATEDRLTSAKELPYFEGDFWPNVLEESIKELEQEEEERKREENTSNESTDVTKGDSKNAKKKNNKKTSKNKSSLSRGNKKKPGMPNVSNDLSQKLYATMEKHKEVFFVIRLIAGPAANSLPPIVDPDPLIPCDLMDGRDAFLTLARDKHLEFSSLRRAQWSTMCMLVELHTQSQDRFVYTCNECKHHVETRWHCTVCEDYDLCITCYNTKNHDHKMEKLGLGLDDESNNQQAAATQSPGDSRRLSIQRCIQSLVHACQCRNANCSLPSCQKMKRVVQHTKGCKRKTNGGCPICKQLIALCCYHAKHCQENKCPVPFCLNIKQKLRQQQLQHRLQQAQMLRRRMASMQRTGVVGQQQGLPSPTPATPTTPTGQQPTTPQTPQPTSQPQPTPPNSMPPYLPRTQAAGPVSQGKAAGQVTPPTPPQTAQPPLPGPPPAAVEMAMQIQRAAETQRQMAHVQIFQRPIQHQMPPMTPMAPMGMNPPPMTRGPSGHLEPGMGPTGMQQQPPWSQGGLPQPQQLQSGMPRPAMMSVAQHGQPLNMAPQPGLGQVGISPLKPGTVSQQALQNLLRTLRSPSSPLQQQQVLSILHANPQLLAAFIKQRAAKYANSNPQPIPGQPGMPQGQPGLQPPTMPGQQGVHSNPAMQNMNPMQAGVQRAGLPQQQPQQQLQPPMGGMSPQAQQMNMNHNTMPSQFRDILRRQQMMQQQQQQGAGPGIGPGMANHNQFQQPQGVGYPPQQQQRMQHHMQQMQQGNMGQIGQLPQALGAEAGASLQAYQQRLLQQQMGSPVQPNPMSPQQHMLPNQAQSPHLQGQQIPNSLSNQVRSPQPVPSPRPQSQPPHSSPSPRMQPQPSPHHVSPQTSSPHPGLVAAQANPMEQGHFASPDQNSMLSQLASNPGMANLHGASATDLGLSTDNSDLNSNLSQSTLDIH

Sequence of MYST3 (Q92794 whole entry, species assumed): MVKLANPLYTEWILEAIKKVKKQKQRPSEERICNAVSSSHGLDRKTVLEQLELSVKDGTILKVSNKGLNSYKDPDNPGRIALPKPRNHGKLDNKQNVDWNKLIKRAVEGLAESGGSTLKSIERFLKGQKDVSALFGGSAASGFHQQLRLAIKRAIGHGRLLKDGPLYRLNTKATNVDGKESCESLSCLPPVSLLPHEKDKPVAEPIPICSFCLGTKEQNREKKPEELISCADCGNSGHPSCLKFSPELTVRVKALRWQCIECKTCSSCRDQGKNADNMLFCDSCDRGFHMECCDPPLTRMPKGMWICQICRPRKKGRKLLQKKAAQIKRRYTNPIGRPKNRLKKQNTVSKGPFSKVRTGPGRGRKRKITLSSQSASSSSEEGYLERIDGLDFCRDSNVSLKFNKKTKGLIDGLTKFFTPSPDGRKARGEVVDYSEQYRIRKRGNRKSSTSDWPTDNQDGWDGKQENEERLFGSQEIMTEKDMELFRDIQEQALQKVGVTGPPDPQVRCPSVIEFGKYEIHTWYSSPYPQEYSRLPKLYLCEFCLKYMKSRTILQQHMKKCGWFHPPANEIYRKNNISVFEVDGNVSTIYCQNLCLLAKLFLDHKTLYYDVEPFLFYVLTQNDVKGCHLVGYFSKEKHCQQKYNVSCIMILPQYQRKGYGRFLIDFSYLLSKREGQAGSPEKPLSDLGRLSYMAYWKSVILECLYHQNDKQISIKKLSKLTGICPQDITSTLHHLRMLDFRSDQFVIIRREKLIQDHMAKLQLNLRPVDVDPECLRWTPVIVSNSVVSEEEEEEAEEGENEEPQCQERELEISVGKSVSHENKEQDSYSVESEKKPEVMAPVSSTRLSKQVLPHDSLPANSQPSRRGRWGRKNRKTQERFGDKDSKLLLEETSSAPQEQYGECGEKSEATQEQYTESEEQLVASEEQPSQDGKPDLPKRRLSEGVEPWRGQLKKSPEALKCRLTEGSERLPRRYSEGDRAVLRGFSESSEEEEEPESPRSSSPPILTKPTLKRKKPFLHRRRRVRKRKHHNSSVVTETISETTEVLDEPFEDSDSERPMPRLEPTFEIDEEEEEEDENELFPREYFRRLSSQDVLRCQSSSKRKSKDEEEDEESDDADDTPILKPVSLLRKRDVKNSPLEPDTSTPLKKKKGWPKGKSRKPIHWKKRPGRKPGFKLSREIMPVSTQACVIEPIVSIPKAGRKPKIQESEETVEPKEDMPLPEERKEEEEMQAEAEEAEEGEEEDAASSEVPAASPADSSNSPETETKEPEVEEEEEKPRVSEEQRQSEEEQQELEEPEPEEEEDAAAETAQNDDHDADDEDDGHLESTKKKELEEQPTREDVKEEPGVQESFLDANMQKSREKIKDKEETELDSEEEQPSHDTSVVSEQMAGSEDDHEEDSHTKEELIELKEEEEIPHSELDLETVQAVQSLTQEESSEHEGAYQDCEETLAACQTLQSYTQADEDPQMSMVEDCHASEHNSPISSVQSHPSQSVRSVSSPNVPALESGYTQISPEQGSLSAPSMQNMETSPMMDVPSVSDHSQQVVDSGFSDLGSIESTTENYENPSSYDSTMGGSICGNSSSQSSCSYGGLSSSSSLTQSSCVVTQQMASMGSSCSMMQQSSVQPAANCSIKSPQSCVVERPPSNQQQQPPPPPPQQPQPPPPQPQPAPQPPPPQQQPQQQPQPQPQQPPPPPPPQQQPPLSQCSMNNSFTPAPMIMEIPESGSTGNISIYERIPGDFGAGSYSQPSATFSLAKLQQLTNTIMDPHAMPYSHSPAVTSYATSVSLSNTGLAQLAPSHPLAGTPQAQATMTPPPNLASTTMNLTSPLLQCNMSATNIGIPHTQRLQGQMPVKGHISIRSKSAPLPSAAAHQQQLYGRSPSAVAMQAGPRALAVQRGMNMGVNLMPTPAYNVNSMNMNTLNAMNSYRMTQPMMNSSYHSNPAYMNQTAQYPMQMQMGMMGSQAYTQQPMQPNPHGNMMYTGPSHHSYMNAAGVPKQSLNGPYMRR

An activity at 1 µM ([1]; 1µM) of 99%, an activity at 10 µM ([1]; 10µM) of 103% and an activity at 1 µM ([2]; 1µM) of 100% were found for Cc1cc2c(cc1N1C(=O)c3cccc4c(CCCO)ccc(c34)C1=O)n(C)c(=O)n2C [BAY-299] in this work. It also gave an activity at 10 µM ([2]; 10µM) of 93%, an activity at 1 µM ([3]; 1µM) of 99% and an activity at 10 µM ([3]; 10µM) of 99%. For the same compound, the activity at 1 µM ([4]; 1µM) was 98%, the activity at 10 µM ([4]; 10µM) was 85% and the activity at 1 µM ([5]; 1µM) was 95%. It also gave an activity at 10 µM ([5]; 10µM) of 93%.
An activity at 1 µM ([1]; 1µM) of 94%, an activity at 10 µM ([1]; 10µM) of 95% and an activity at 1 µM ([2]; 1µM) of 99% were found for Cc1c(NC(=O)c2cc(C(N)=O)nc3cc(F)ccc23)c(C(F)(F)F)nn1Cc1ccc(C(C)(C)C)cc1 [BAY-588] in this work. The activity at 10 µM ([2]; 10µM) was 97%, the activity at 1 µM ([3]; 1µM) was 100% and the activity at 10 µM ([3]; 10µM) was 93%. It also gave an activity at 1 µM ([4]; 1µM) of 99%, an activity at 10 µM ([4]; 10µM) of 96% and an activity at 1 µM ([5]; 1µM) of 103%. It also gave an activity at 10 µM ([5]; 10µM) of 99%.
An activity at 1 µM ([1]; 1µM) of 99%, an activity at 10 µM ([1]; 10µM) of 102% and an activity at 1 µM ([2]; 1µM) of 101% were found for COc1cc(Cl)c(C(=O)N[C@@H](CN[C@H]2CC[C@@H](N)CC2)Cc2ccc(C#N)cc2)cc1-c1ccc(CN[C@H](C)c2ccc(C)cc2)o1 [BAY-850] in this work. For the same compound, the activity at 10 µM ([2]; 10µM) was 101%, the activity at 1 µM ([3]; 1µM) was 93% and the activity at 10 µM ([3]; 10µM) was 94%. It also gave an activity at 1 µM ([4]; 1µM) of 96%, an activity at 10 µM ([4]; 10µM) of 97% and an activity at 1 µM ([5]; 1µM) of 98%. It also gave an activity at 10 µM ([5]; 10µM) of 87%.
An activity at 1 µM ([1]; 1µM) of 100%, an activity at 10 µM ([1]; 10µM) of 97% and an activity at 1 µM ([2]; 1µM) of 97% were found for Cc1c(NC(=O)c2cc(C(N)=O)nc3cc(F)ccc23)c(C(F)(F)F)nn1Cc1ccc(C#N)cc1 [BAY-876] in this work. For the same compound, the activity at 10 µM ([2]; 10µM) was 89%, the activity at 1 µM ([3]; 1µM) was 96% and the activity at 10 µM ([3]; 10µM) was 91%. The activity at 1 µM ([4]; 1µM) was 99%, the activity at 10 µM ([4]; 10µM) was 101% and the activity at 1 µM ([5]; 1µM) was 99%. For the same compound, the activity at 10 µM ([5]; 10µM) was 95%.
An activity at 1 µM ([1]; 1µM) of 99%, an activity at 10 µM ([1]; 10µM) of 102% and an activity at 1 µM ([2]; 1µM) of 102% were found for CN1C[C@H](Nc2cnn(C)c(=O)c2Br)C[C@H](c2ccccc2)C1 [GSK4027] in this work. The activity at 10 µM ([2]; 10µM) was 89%, the activity at 1 µM ([3]; 1µM) was 102% and the activity at 10 µM ([3]; 10µM) was 98%. It also gave an activity at 1 µM ([4]; 1µM) of 101%, an activity at 10 µM ([4]; 10µM) of 101% and an activity at 1 µM ([5]; 1µM) of 93%. The activity at 10 µM ([5]; 10µM) was 90%.
For COc1ccccc1C(=O)Nc1cc2c(cc1N1CCNC[C@H]1C)n(C)c(=O)n2C [GSK6853], the “HATs Activity (%)” value ([1]; 1µM) was 107%, the “HATs Activity (%)” value ([1]; 10µM) was 107% and the “HATs Activity (%)” value ([2]; 1µM) was 100%. The “HATs Activity (%)” value ([2]; 10µM) was 94%, the “HATs Activity (%)” value ([3]; 1µM) was 99% and the “HATs Activity (%)” value ([3]; 10µM) was 101%. For the same compound, the “HATs Activity (%)” value ([4]; 1µM) was 107%, the “HATs Activity (%)” value ([4]; 10µM) was 104% and the “HATs Activity (%)” value ([5]; 1µM) was 98%. For the same compound, the “HATs Activity (%)” value ([5]; 10µM) was 104%.
An activity at 1 µM ([1]; 1µM) of 102%, an activity at 10 µM ([1]; 10µM) of 100% and an activity at 1 µM ([2]; 1µM) of 100% were found for CO[C@H]1CNC[C@@H](OCC2CCC(F)(F)CC2)[C@@H]1Nc1ncc(-c2cncc(C)c2)c2cc(C)c(=O)[nH]c12 [GSK8814] in this work. For the same compound, the activity at 10 µM ([2]; 10µM) was 95%, the activity at 1 µM ([3]; 1µM) was 99% and the activity at 10 µM ([3]; 10µM) was 103%. It also gave an activity at 1 µM ([4]; 1µM) of 96%, an activity at 10 µM ([4]; 10µM) of 102% and an activity at 1 µM ([5]; 1µM) of 96%. For the same compound, the activity at 10 µM ([5]; 10µM) was 102%.
An activity at 1 µM ([1]; 1µM) of 99%, an activity at 10 µM ([1]; 10µM) of 95% and an activity at 1 µM ([2]; 1µM) of 100% were found for Cc1nnc2c3ccccc3c(N[C@@H](C)[C@H](c3ccccc3)N(C)C)nn12 [L-Moses] in this work. The activity at 10 µM ([2]; 10µM) was 95%, the activity at 1 µM ([3]; 1µM) was 97% and the activity at 10 µM ([3]; 10µM) was 96%. The activity at 1 µM ([4]; 1µM) was 92%, the activity at 10 µM ([4]; 10µM) was 90% and the activity at 1 µM ([5]; 1µM) was 94%. For the same compound, the activity at 10 µM ([5]; 10µM) was 90%.
An activity at 1 µM ([1]; 1µM) of 96%, an activity at 10 µM ([1]; 10µM) of 92% and an activity at 1 µM ([2]; 1µM) of 93% were found for CN(C)CCCOc1ccc(-c2cc(NCCCn3cccn3)nc(S(C)(=O)=O)n2)cc1 [TP-238] in this work. It also gave an activity at 10 µM ([2]; 10µM) of 100%, an activity at 1 µM ([3]; 1µM) of 99% and an activity at 10 µM ([3]; 10µM) of 97%. For the same compound, the activity at 1 µM ([4]; 1µM) was 97%, the activity at 10 µM ([4]; 10µM) was 99% and the activity at 1 µM ([5]; 1µM) was 99%. It also gave an activity at 10 µM ([5]; 10µM) of 95%.
